The target in assay [1] is T1, IDO1 (Homo sapiens, UniProt P14902). Description: IDO1 Cellular Assay in HeLa Cells Stimulated with IFNγ. It counts as cell-based. The note with it: IFNγ 100 ng/mL, 300 uM L-tryptophan, about 48 hours incubation, fluorescence readout, read-out: IDO1 HeLa Cell Assay, IC50. The method, then: IDO1 Cellular Assay in HeLa Cells Stimulated with IFNγ
HeLa cells were cultured in complete HeLa culture medium (90% EMEM, 10% heat-inactivated fetal bovine serum) and expanded to about 1×10^9 cells. The cells were then collected and frozen down at 1×10^7 cells/vial in 1 mL frozen medium (90% complete HeLa culture medium, 10% DMSO).
Compounds to be tested were serially diluted in ten 3-fold steps in DMSO starting from 10 mM DMSO stocks in Echo low volume plate(s).
Frozen HeLa cells were thawed and transferred into HeLa assay medium (99% complete HeLa culture medium, 1% Pen/Strep) with 20 mL medium/vial of cells. The cells were spun down at 250 g in a table top centrifuge for 5 min and suspended in same volume of HeLa assay medium. The cells were then counted and adjusted to a density of 2×10^5 cells/mL in HeLa assay medium. Sterile L-tryptophan were added to the cells with final concentration of 300 uM L-tryptophan. A small aliquot (2 mL/plate) of HeLa cells were set aside and were not treated with IFNγ, to serve as the Max-E control.
HeLa cells with and without IFNγ were dispensed to the respective wells of 384-well assay plates containing the compounds. The plates were incubated for about 48 hours at a 37° C., 5% CO2 incubator. Afterwards, 12 μL of 0.5 M methyl isonipecotate in dimethyl sulfoxide were added into each well and the plates were sealed and incubated at 37° C. without CO2 overnight. The plates were centrifuged for 1 min at 200×g. The resulting fluorescence was measured in a Spectramax plate reader (Molecular Devices) with a 400 nm excitation filter and a 510 nm emission filter.
Potencies were calculated by […] least squares fit to the four parameter logistic IC50 equation.

Assay [2] has as its target T1, IDO1. Nature of the assay: IDO1 Human Whole Blood Assay. The class given is cell-based. To be noted: LPS and IFNγ 100 ng/mL, 18 h, kynurenine by LC/MS/MS. The method, then: IDO1 Human Whole Blood Assay
Compounds to be tested were serially diluted in ten 3-fold steps in DMSO starting from 10 mM. 3 μL of compound dilutions or DMSO alone were then dispensed from the dilution plate into a polypropylene 96-well assay plate containing 97 μL of RPMI medium using an Echo 555 acoustic liquid handler (Labcyte). LPS and IFNγ was prepared in RPMI medium to a 10× of final conc. (1000 ng/mL), final concentration is 100 ng/mL.
Human whole blood was drawn in sodium heparin coated tubes from healthy internal donors. 240 μL of blood was transferred to each of the wells of a v-bottom 96 well plate. 30 μL of compound was transferred from intermediate dilution plate, and incubated for 15 min. 30 μL from stimulants was then transferred to blood and mixed thoroughly. Plate was covered with breathable membrane and incubated at 37° C. for overnight (18 h).
On day 2, isotope labeled standard solutions of kunurenine and tryptophan was made in water at 10× concentration and 30 μL was added to the blood at […] concentration. The assay plates were centrifuged at 300×G for 10 min with no brake to separate plasma from red blood cells. 60 μL of plasma samples was removed without disturbing red blood cells. Plasma was diluted with RPMI in 1:1 ratio and proteins were precipitated out with two volumes of Acetonitrile. The plates were centrifuged at 4000×G for 60 min. 20 μL of supernatant was carefully transferred to a 384 well plate containing 40 μL of 0.1% formic acid in water and analyzed by LC/MS/MS.
LC/MS/MS analyses were performed using Thermo Fisher's LX4-TSQ Quantum Ultra system. This system consists of four Agilent binary high-performance liquid chromatography (HPLC) pumps and a TSQ Quantum Ultra triple quadrupole MS/MS instrument. For each sample, 5 μL were injected onto an Atlantis T3 column (2.1 mm×150 mm, 3 μm particle size) from Waters. The mobile phase gradient pumped at 0.8 mL/min was used to elute the analytes from the column at 25° C. The elution started at 0% B increasing linearly to 25% B at 6.5 min, holding at 25% for 1 min, re-equilibrating to 10 min. Mobile phase A consisted of 0.1% formic acid in water. Mobile phase B consisted of 0.1% of formic acid in acetonitrile. Data was acquired in positive mode using a HESI interface. The operational parameters for the TSQ Quantum Ultra instrument were a spray voltage of 4000 V, capillary temperature of 380° C., vaporizer temperature 400° C., shealth gas 60 arbitrary units, Aux gas 20 arbitrary units, tube lens 85 and collision gas 1.2 mTorr. SRM chromatograms of kynurenine (QI: 209.2>Q3:94.0) and internal standard (QI: 215.3>Q3:98.2) were collected for 90 sec. The peak area was integrated by Xcalibur Quan software. The ratios between the kynurenine generated in the reaction and 2D6-Kynurenine spiked-in internal standard were used to generate percentage inhibition and IC50 values. Compounds were titrated and IC50's were calculated by 4 parameter sigmoidal curve fitting formula.

T1 sequence (P14902 whole entry): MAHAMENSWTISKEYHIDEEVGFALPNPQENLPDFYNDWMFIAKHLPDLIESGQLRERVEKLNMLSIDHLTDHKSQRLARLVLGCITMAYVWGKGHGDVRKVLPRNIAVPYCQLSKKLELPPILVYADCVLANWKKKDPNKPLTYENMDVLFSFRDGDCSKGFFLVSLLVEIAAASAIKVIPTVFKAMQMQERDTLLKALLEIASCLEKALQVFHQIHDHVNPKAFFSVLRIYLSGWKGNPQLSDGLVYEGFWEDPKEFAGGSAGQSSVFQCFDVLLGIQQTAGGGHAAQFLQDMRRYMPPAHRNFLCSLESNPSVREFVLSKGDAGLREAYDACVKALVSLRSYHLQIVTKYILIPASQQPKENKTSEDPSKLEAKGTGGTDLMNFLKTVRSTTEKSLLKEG

What is called IC50 is the concentration needed to halve the response being measured. Consider `N#Cc1cccc(C(=O)Nc2ccc(C3(c4nc5ncc(C(F)(F)F)cc5[nH]4)CCC3)nc2)c1` [Ex. 45, 3-Cyano-N-(6-(1-(6-(trifluoromethyl)-1H-imidazo[4,5-b]pyridin-2-yl)cyclobutyl)pyridin-3-yl)benzamide], for which the IC50 at IDO1 [1] worked out at 4.98 nM; on IDO1 [2], 5780 nM.

With `N#Cc1cccc(C(=O)Nc2ccc(C3(c4nc5ccccc5[nH]4)CCC3)nc2)c1` [Ex. 46, N-(6-(1-(1H-benzo[d]imidazol-2-yl)cyclobutyl)pyridin-3-yl)-3-cyanobenzamide], the IC50 on IDO1 [1] is 6.11 nM; at IDO1 [2], 1690 nM.

For the origin of these results see US11103493B2, “Substituted pyridinyl compounds as indoleamine 2,3-dioxygenase (IDO) inhibitors” (Merck Sharp & Dohme Corp., priority 2017, dated 2021).
